Assay results as given in EP1021178B1, “SELENOPHENE ANTI-TUMOR AGENTS” (Purdue Research Foundation, priority 1996, dated 1997).

What was measured:
Assay in all cases: NCI human tumor cell panel
[1] = tested on: HT29; settings: HT-29, read-out: Log10 LC50 (converted)
[2] = tested on: KM12; format: cell-based; settings: KM12, read-out: Log10 LC50 (converted)
From the text: (§1) Considering the diversity of tumors in terms of cell type, morphology, growth rate and other cellular characteristics, the U.S. National Cancer Institute (NCI) has developed a "disease-oriented" approach to antitumor activity screening (M.R. Boyd, in "Principle of Practice of Oncology" J.T. Devita, S. Hellman, S.A. Rosenberg (Eds.) Vol. 3, PPO Update, No. 10, 1989). This in vitro prescreening system is based on the measurement of antitumor cytotoxicity against human tumor cell line panels consisting of approximately 60 cell lines of major human tumors (including leukemia and slower growing tumor cells such as lung, colon, breast, skin, kidney, etc.). The most important advantage of the new in vitro screening panels is the opportunity to identify compounds that are selectively more cytotoxic to cells of slowly growing solid tumors than to rapidly growing leukemia cells.
(§2) The cytotoxic activity of the present selenophene compounds have been measured utilizing two different assays or screens. The first screen measures the cytotoxicity against a panel of sixty different human tumor cell lines. This assay provides data regarding the general cytotoxicity of an individual compound. In particular this type of assay is useful in identifying compounds which have enhanced cytotoxic activity against slow growing tumors as compared to faster growing tumor cells such as leukemia tumor cell lines. The identification of such compounds is critical since previously identified antitumor agents have low cytotoxic activity against slower growing tumors. […] The specificity of a cytotoxic compound for tumor cell lines relative to normal cells is an important characteristic of an effective antitumor agent.
(§3) Antitumor cytotoxicity data generated from the National Cancer Institute human tumor cell panels can also be expressed in a graphic pattern (mean graph) to display differential cell growth inhibition (K.D. Paull, R.H. Shoemaker, L. Hodes, A. Monks, D.A. Scudiero, L. Rubinstein, J. Plowman and M.R. Boyd, J. Nail. Cancer Inst., 81, 1088, 1989.) In the mean graph, the arithmetic mean of the logarithm of the GI50 (50% growth inhibition), TGI (total growth inhibition) or LC50 (50% lethal concentration) values is used as an anchor point. […] The length of a bar is indicative of differential cytotoxicity against a specific type of tumor cells or tumor panels.
(§4) The antitumor cytotoxicity of the selenophene compounds tested in those in vitro assays was measured by a microculture assay using either a 3-(4,5-dimethylthiazol-2-yl)-2,5-diphenyltetrazolium bromide (MTT) or sulforhodamine B (SRB) based assay. [M.R. Boyd in "Principles and Practices of Oncology," V.T. DeVita, Jr.]. The experiments were conducted at Purdue University in 96-well microtiter plates and the cytotoxic effects of the selenophene compounds on those cells were measured by cell count using a Coulter Z.F. counter (Hialeah, FL). The results are expressed as GI50, the concentration of drug at which cell numbers are reduced to 50% of control cell culture [T.C.K. Chan, C.J. Chang, N.M. Koonchanok and R.L. Geahlen, Biochem. Biophys. Res. Commun., 193, 1152, (1993); S. Hellman and S.A. Rosenberg (Eds.), Vol. 3, PPO Updates, Number 10, (1989).]
(§5) This in vitro microculture assay has an advantage over in vivo assays in that results are obtained within a week as opposed to several months. The MTT assay is based on the production of a dark blue formazan product by dehydrogenase in the mitochondria of live tumor cells after exposure to drug for 6 days [M.C. Alley, D.A. Scudiero, A. Monks, M.L. Hursey, M.J. Czerwinski, D.L. Fine, B.J. Abbott, J.G. Mayo, R.H. Shoemaker and M.R. Boyd, Cancer Res., 48, 589, 1988]. Thus, only live cells are stained and can be measured at 570 nm. […]

[3] = tested on: HOP-92; format: cell-based; settings: HOP-92, read-out: Log10 LC50 (converted)
From the text: as §1, §2, §3, §4, §5

[4] = tested on: MCF7; format: cell-based; settings: MCF7, read-out: Log10 LC50 (converted)
From the text: as §1, §2, §3, §4, §5

[5] = tested on: HOP-62; format: cell-based; settings: HOP-62, read-out: Log10 LC50 (converted)
From the text: as §1, §2, §3, §4, §5

[6] = tested on: NCI-H460; format: cell-based; settings: NCI-H460, read-out: Log10 LC50 (converted)
From the text: as §1, §2, §3, §4, §5

[7] = tested on: NCI-H522; format: cell-based; settings: NCI-H522, read-out: Log10 LC50 (converted)
From the text: as §1, §2, §3, §4, §5

[8] = tested on: UACC-62; format: cell-based; settings: UACC-62, read-out: Log10 LC50 (converted)
From the text: as §1, §2, §3, §4, §5

[9] = tested on: K-562; format: cell-based; settings: K562, read-out: Log10 LC50 (converted)
From the text: as §1, §2, §3, §4, §5

[10] = tested on: BT-549; format: cell-based; settings: BT-549, read-out: Log10 LC50 (converted)
From the text: as §1, §2, §3, §4, §5

[11] = tested on: LOX IMVI; format: cell-based; settings: read-out: Log10 LC50 (converted)
From the text: as §1, §2, §3, §4, §5

[12] = tested on: ACHN; format: cell-based; settings: read-out: Log10 LC50 (converted)
From the text: as §1, §2, §3, §4, §5

[13] = tested on: SK-MEL-28; format: cell-based; settings: SK-MEL-28, read-out: Log10 LC50 (converted)
From the text: as §1, §2, §3, §4, §5

[14] = tested on: MDA-N; format: cell-based; settings: read-out: Log10 LC50 (converted)
From the text: as §1, §2, §3, §4, §5

[15] = tested on: U251; format: cell-based; settings: U-251, read-out: Log10 LC50 (converted)
From the text: as §1, §2, §3, §4, §5

[16] = tested on: CCRF-CEM; format: cell-based; settings: read-out: Log10 LC50 (converted)
From the text: as §1, §2, §3, §4, §5

[17] = tested on: M14; format: cell-based; settings: M14, read-out: Log10 LC50 (converted)
From the text: as §1, §2, §3, §4, §5

[18] = tested on: MCF7/ADR-RES; format: cell-based; settings: MCF7, read-out: Log10 LC50 (converted)
From the text: as §1, §2, §3, §4, §5

[19] = tested on: SF-295; settings: for CC50: SF-295, read-out: Log10 LC50 (converted)
[20] = tested on: EKVX; settings: read-out: Log10 LC50 (converted)
[21] = tested on: SK-MEL-5; settings: SK-MEL-5, read-out: Log10 LC50 (converted)
[22] = tested on: OVCAR-3; settings: OVCAR-3, read-out: Log10 LC50 (converted)

Row | SMILES | CC50 [1] [µM] | CC50 [2] [µM] | CC50 [3] [µM] | CC50 [4] [µM] | CC50 [5] [µM] | LC50 (concentration killing 50% of cells) [6] [µM] | CC50 [7] [µM] | CC50 [8] [µM] | LC50 [9] [µM] | CC50 [10] [µM] | CC50 [11] [µM] | CC50 [13] [µM] | LC50 (50% lethal concentration) [14] [µM] | CC50 [15] [µM] | CC50 [16] [µM] | CC50 [17] [µM] | CC50 [19] [µM] | CC50 [20] [µM] | CC50 [21] [µM] | CC50 [22] [µM] | further results
1 | O=Cc1ccc(-c2ccc(-c3ccc(C=O)[se]3)s2)s1 | > 100 | > 100 | > 100 | > 100 | > 100 | > 100 | > 100 | > 100 | > 100 | > 100 | > 100 | > 100 | > 100 | > 100 | > 100 | > 100 | > 100 | > 100 | > 100 | > 100 | CC50 [12]: > 100 µM; CC50 [18]: > 100 µM; IC (TGI) ([19]; SF-295, read-out: Log10 TGI): > 100 µM
2 | OCc1ccc(-c2ccc(-c3ccc(CO)[se]3)s2)s1 | > 100 | > 100 | > 100 | > 100 | 85.1 | 28.8 | > 100 | > 100 | 97.7 | > 100 | 56.2 | > 100 | > 100 | 72.4 | > 100 | > 100 | > 100 | > 100 | > 100 | 50.1 | CC50 [12]: > 100 µM; CC50 [18]: > 100 µM
3 | OCc1ccc(-c2ccc(-c3ccc[se]3)s2)[se]1 | > 100 | > 100 | > 100 | > 100 | > 100 | > 100 | 55 | > 100 | > 100 | 87.1 | 85.1 | > 100 | > 100 | 44.7 | > 100 | > 100 | > 100 | > 100 | > 100 | 40.7 | CC50 [12]: > 100 µM; CC50 [18]: 97.7 µM
4 | OCc1ccc(-c2ccc(-c3ccc[se]3)[se]2)[se]1 | 58.9 | 52.5 | 38 | 29.5 | 44.7 | 22.9 | 23.4 | 67.6 | > 100 |  | 37.2 | 53.7 | > 100 | 55 | > 100 | 61.7 | 72.4 | 42.7 | 29.5 | 6.92 | CC50 [18]: > 100 µM
5 | OCc1ccc(-c2ccc(-c3ccc(CO)[se]3)[se]2)[se]1 | 66.1 | 50.1 | 55 | 47.9 | 57.5 | 81.3 | 7.08 | 44.7 | 70.8 | > 100 | > 100 | > 100 | 74.1 | 50.1 | > 100 | 49 | 70.8 | > 100 | 6.31 | 5.37 | CC50 [12]: > 100 µM; CC50 [18]: > 100 µM
6 | OCc1ccc(-c2ccc(-c3ccc(CO)s3)[se]2)s1 | > 100 | > 100 | > 100 | > 100 | > 100 | > 100 | > 100 | > 100 | > 100 | > 100 | > 100 | > 100 | > 100 | > 100 | > 100 | > 100 | > 100 | > 100 | > 100 | > 100 | CC50 [12]: > 100 µM; CC50 [18]: > 100 µM
7 | OCc1ccc(-c2ccc(-c3ccc(CO)[se]3)s2)[se]1 | > 100 | > 100 | 0.324 | > 100 | > 100 | > 100 |  | > 100 | > 100 | > 100 | > 100 | > 100 | > 100 | 46.8 | > 100 | > 100 | > 100 | > 100 | > 100 | > 100 | CC50 [12]: > 100 µM; CC50 [18]: > 100 µM
8 | OCc1ccc(-c2ccc(-c3cccs3)[se]2)s1 | > 100 | > 100 | > 100 | > 100 | > 100 | > 100 | > 100 | > 100 | > 100 | > 100 | > 100 | > 100 | > 100 | > 100 | > 100 | > 100 | > 100 | > 100 | > 100 | > 100 | CC50 [12]: > 100 µM; CC50 [18]: > 100 µM
9 | O=Cc1ccc(-c2ccc(-c3ccc[se]3)[se]2)[se]1 | 36.3 | 45.7 | 63.1 | 43.7 | 74.1 | 40.7 | 42.7 | 66.1 | > 100 | 79.4 | 77.6 | 55 | 64.6 | 47.9 | > 100 | 72.4 | 53.7 | > 100 | 37.2 | 30.9 | CC50 [12]: 46.8 µM
